According to patent publication US20090318402A1, “RUTHENIUM (II) COMPOUNDS” (The University Court of the University of Edinburg, priority 2006, published 2009):

What was measured:
[1] = system: A549 cancer cell line; test: Cytotoxicity: inhibitory growth activity, sulforhodamine B assay; format: cell-based; conditions: 24 hours drug exposure, 96 hours recovery, SRB
Experimental: (§1) Compounds were tested for inhibitory growth activity against the A2780 and A549 cancer cell lines. Each drug was tested for activity at six different concentrations (100 μM, 50 μM, 10 μM, 5 μM, 1 μM and 0.1 μM) and each concentration was tested in triplicate, relative to a cisplatin control.
The A2780 cancer cell line was maintained by growing the cells in RPMI media supplemented with 5% fetal bovine serum, 1% penicillin/streptomycin and 2 mM L-glutamine. […] The cells were kept incubated at 37° C., 5% CO2, high humidity. The A549 cancer cell line was maintained by growing the cells in DMEM media supplemented with 10% fetal bovine serum, 1% penicillin/streptomycin and 2 mM L-glutamine. […] The cells were kept incubated at 37° C., 5% CO2, high humidity.
A2780 cancer cells were plated out at 50000 cells/well (±10%) on day one. A549 cancer cells were plated out at 20000 cells/well (±10%) on day two. […] The remaining biomass was estimated by the sulforhodamine B assay. The cells were then fixed using 50 μl 50% (w/v) TCA and incubated at 4° C. for one hour. The biomass was stained with 100 μl 0.4% (w/v) sulforhodamine B in 1% acetic acid. The dye was solubilised with Tris Buffer and the absorbance was read using a BMG Fluostar microplate reader at 595 nm. A baseline correction at 690 nm was subtracted from the values. The absorbance for 100% cell survival was based on the average absorbance for the 0.1 μM dosed triplicate for that drug. IC50 values were calculated using XL-Fit version 4.0.

[2] = system: A2780 cancer cell line; test: as above; format: cell-based; conditions: 24 hours drug exposure, 96 hours recovery, SRB
Experimental: as §1
The A2780 cancer cell line was maintained by growing the cells in RPMI media supplemented with 5% fetal bovine serum, 1% penicillin/streptomycin and 2 mM L-glutamine. The cells were split when approximately 70-80% confluence were reached using 0.25% trypsin/EDTA. The cells were kept incubated at 37° C., 5% CO2, high humidity. The A549 cancer cell line was maintained by growing the cells in DMEM media supplemented with 10% fetal bovine serum, 1% penicillin/streptomycin and 2 mM L-glutamine. The cells were split when approximately 70-80% confluence were reached using 0.25% trypsin/EDTA. The cells were kept incubated at 37° C., 5% CO2, high humidity.
A2780 cancer cells were plated out at 50000 cells/well (±10%) on day one. A549 cancer cells were plated out at 20000 cells/well (±10%) on day two. On day three the test compound was dissolved in DMSO to give a stock solution of 20 mM and serial dilutions were carried out in DMSO to give concentrations of drug in DMSO of 10 mM, 2 mM, 1 mM, 0.2 mM and 0.02 mM. These were added to the wells to give the six testing concentrations and a final concentration of DMSO as 0.5% (v/v) with a total volume of drugs and media to be 200 μl. The cells were exposed to the drug for 24 hours then, after drug removal, fresh media was given and the cells were incubated for 96 hours recovery time. The remaining biomass was estimated by the sulforhodamine B assay. The cells were then fixed using 50 μl 50% (w/v) TCA and incubated at 4° C. for one hour. The biomass was stained with 100 μl 0.4% (w/v) sulforhodamine B in 1% acetic acid. The dye was solubilised with Tris Buffer and the absorbance was read using a BMG Fluostar microplate reader at 595 nm. A baseline correction at 690 nm was subtracted from the values. The absorbance for 100% cell survival was based on the average absorbance for the 0.1 μM dosed triplicate for that drug. IC50 values were calculated using XL-Fit version 4.0.

[3] = Reactions with ascorbate (UV-Vis, 1H NMR); format: physicochemical; conditions: 5 equivalents ascorbate, 10 mM phosphate buffer, pH 7.35 (UV-Vis) / 7.30 (NMR), 310K
[4] = Aqueous solution chemistry followed by 1H NMR (hydrolysis, arene loss); format: physicochemical
Experimental: NMR-Spectroscopy: All ^1H NMR experiments for characterization of synthesized compounds were recorded on either a Bruker DMX 500 MHz spectrometer equipped with TBI [^1H, ^13C, ^15N] probe-head, equipped with z-field gradients or a Bruker DPX 360 MHz spectrometer. The proton signals were calibrated against the residual solvent peak, δ 7.27 (chloroform), 2.07 (acetone) and 2.52 (DMSO). The 2D ^1H-TOCSY and 2D ^1H COSY experiments for characterization were run on a Bruker DMX 500 MHz spectrometer. 2D-^1H ROESY experiment for characterization was recorded on a Bruker AVA […] spectrometer equipped with a with a TXI [^1H, ^13C, ^15N] probe-head, equipped with z-field gradients. All pH titration experiments were recorded on a Bruker AVA 600 MHz spectrometer where dioxan was added as an internal reference (δ 3.75, in 100% D2O). The water was suppressed using a 1D Double Pulse Field Gradient Spin Echo (DPFGSE) experiment. The aqueous solution behaviour was recorded on a Bruker bio 600 MHz spectrometer equipped with a cryoprobe and the water was suppressed using a 1D Double Pulse Field Gradient Spin Echo (DPFGSE) experiment. The chemical shifts were measured relative to dioxin (internal reference δ 3.75, in 90% H2O/10% D2O). All spectra were recorded using 5 mm quartz tubes at 298 K unless stated otherwise. All NMR data were processed using Xwin-NMR (Version 2.0 Bruker UK Ltd).
The complex was dissolved in H2O/D2O, the pH was taken, and NMR spectra were recorded at uniform time intervals at a fixed temperature using a multi-zg kinetic experiment program. After acquisition, Electrospray Mass Spectrometry was performed on a portion of the NMR solution.
The solution chemistry was followed by ^1H NMR unless stated otherwise.

[5] = system: A549 cancer cells; test: Detection of reactive oxygen species (ROS) with DCFH-DA probe; format: cell-based; conditions: 25 μM, 0.5% DMSO, 6.5 hours, 310 K, cells pre-loaded with DCFH-DA; FIG. 4
Experimental: The generation of ROS can be detected inside living cells using the molecular probe DCFH-DA. This probe crosses the membrane into cells where it is hydrolyzed to DCFH. In the presence of ROS it is oxidized to highly fluorescent DCF. […] Cells were loaded with DCFH-DA (10 μM, 0.5% DMSO (v/v)) and were incubated at 310 K, 5% CO2, high humidity for 30 minutes. The probe was removed and the cells were washed twice with PBS (200 μL). The cells were then kept in Hanks Balanced Salt Solution (HBSS) and the ruthenium compounds were diluted with HBSS and added to the wells (25 μM, 0.5% DMSO (v/v)). Hydrogen peroxide (25 μM) was added as a positive control and the fluorescence was read every 200 seconds over a period of 6.5 hours at 310 K by excitation at 480±10 nm and emission at 538±15 nm on a BMG fluostar plate reader. A time course experiment was performed to follow any increase in fluorescence over 6.5 hours after addition of ruthenium compounds to cells pre-loaded with DFCH-DA.

[6] = Solution chemistry in phosphate buffer mimicking cell test conditions (NMR, ESI-MS); format: physicochemical; conditions: 100 μM, 10 mM phosphate buffer, 95% D2O, 5% MeOD, 310 K, 24 h; pH* 7.35 (8), 7.40 (10), 7.31 (13), 7.38 (21)
Experimental: Solutions of four ruthenium complexes (8, 10, 13 and 21) in MeOD were diluted down in 10 mM phosphate buffer/D2O to give a final concentration of 100 μM ruthenium (95% D2O, 5% MeOD) and NMR spectra were recorded at 310 K initially (time ca. 15 minutes) and after 24 h. The pH* of the samples was 7.35 (8), 7.40 (10), 7.31 (13) and 7.38 (21), The samples were kept in the water bath at 310 K between acquisitions. After 24 hour, ESI-MS was performed on the samples. These conditions were chosen to mimic pH, concentration, exposure time and temperature for the biological cell tests.

[7] = system: A549 cancer cell line; test: Cell viability after increasing thiol levels (NAC pre-incubation); format: cell-based; conditions: 24 hours incubation, 96 hour recovery, 5 mM NAC for two hours, FIG. 5
Experimental: Cell viability was determined in the A549 cancer cell line after cells were pre-incubated with 5 mM NAC to increase intracellular thiol levels. […] This implies that ROS are involved in cell death.

[8] = 50 μM, 95% H2O, 5% MeOH, pH 2.27
[9] = 100 μM, 90% H2O/10% D2O, pH=ca 5, 25° C., initially (time=40 mins)

Q: Which IC50 [1] does the source give for “[Ru(THN)(4-phenol-azo pyridine)Cl]PF6 [Compound 19]” here?
A: The IC50 was 81 µM.

Q: What about the IC50 [2] of the same compound?
A: Its IC50 is 38 µM.

Q: Which IC50 [2] does the source give for “[Ru(p-cymene)(4-phenol-azo pyridine)Cl]PF6 [Compound 11]” here?
A: Its IC50 is 54 µM.

Q: Which IC50 [1] does the source give for “[Ru(biphenyl)(4-phenol-azo pyridine)Cl]PF6 [Compound 12]” here?
A: The IC50 was 56 µM.

Q: What about the IC50 [2] of the same compound?
A: Its IC50 is 18 µM.

Q: What does the source list for `CN(C)c1ccc(N=Nc2ccccn2)cc1.Cc1ccc(C(C)C)cc1.F[P-](F)(F)(F)(F)F.[I-].[Ru+2]` [Compound 8, [Ru(p-cymene)(Azpy-NMe2)I]PF6]?
A: IC50 [1]: 3 µM; reduction by ascorbate [3]: a one electron reduction was occurring; change of complex in solution ([4]; 100 μM, 99.5% D2O, 0.5% DMSO, 115 mM NaCl, pH=7.5, 37° C., over 24 hours): No change occurred; change of complex in solution ([4]; saturated solution (filtered), 90% H2O/10% D2O, pH=7.2, 25° C. over 24 hours): No change occurred; change in DCF fluorescence over time (ROS generation) [5]: increase in the DCF fluorescence; IC50 [2]: 5 µM; hydrolysis [6]: no hydrolysis had occurred; cell survival of cells pre-treated with NAC versus untreated cells ([7]; 5 μM drug): greater cell survival

Q: With “[Ru(p-cymene)(4-phenol-azo pyridine)I]PF6 [Compound 21]” as the compound, how does the IC50 [1] read?
A: The IC50 was 4 µM.

Q: What about the “change in DCF fluorescence over time (ROS generation)” value [5] of the same compound?
A: Its value is “increase in the DCF fluorescence”.

Q: What about the IC50 [2] of the same compound?
A: The IC50 was 4 µM.

Q: What about the “cell survival of cells pre-treated with NAC versus untreated cells” value ([7]; 5 μM drug) of the same compound?
A: Its value is “greater cell survival”.

Q: For “[Ru(p-cymene)(3(5)-(4-dimethylaminophenylazo)pyrazole)Cl]PF6 [Compound 14]”, which IC50 [1] is on record?
A: The IC50 was 41 µM.

Q: What about the “speciation after 24 hours” value ([4]; 100 μM, 90% H2O/10% D2O, pH=ca 5, 25° C., after 24 hours) of the same compound?
A: Its value is “exists fully in the aqua form”.

Q: What about the aqua species [4, 9] of the same compound?
A: The aqua species was about 40%.

Q: What about the chloride species [4, 9] of the same compound?
A: Its chloride species is about 60%.

Q: What about the “course of the hydrolysis reaction” value ([4]; 100 μM, 90% H2O/10% D2O, pH=ca 5, 37° C. over 24 hours, compared with 25° C.) of the same compound?
A: Its value is “the course of the reaction is the same”.

Q: And the IC50 [2]?
A: Its IC50 is 18 µM.

Q: What about the “half live for hydrolysis” value [8] of the same compound?
A: The value was 2.09 h.

Q: What does the source list for “[Ru(biphenyl)(Azpy-NMe2)I]PF6 [Compound 10]”?
A: IC50 [1]: 2 µM; change in DCF fluorescence over time (ROS generation) [5]: increase in the DCF fluorescence; IC50 [2]: 3 µM; cell survival of cells pre-treated with NAC versus untreated cells ([7]; 1 μM drug): greater cell survival

Q: Which results are given for “[Ru(p-cymene)(Azpy-NMe2NO2)I]PF6 [Compound 20]”?
A: IC50 [1]: 28 µM; IC50 [2]: 40 µM

Q: Which results are given for `CN(C)c1ccc(N=Nc2cc[nH]n2)cc1.F[P-](F)(F)(F)(F)F.[I-].[Ru+2].c1ccc(-c2ccccc2)cc1` [Compound 16, [Ru(biphenyl)(3(5)-(4-dimethylaminophenylazo)pyrazole)I]PF6]?
A: IC50 [1]: 42 µM; IC50 [2]: 31 µM

Q: Which results are given for “[Ru(biphenyl)(Azpy-NMe2)Cl]PF6 [Compound 9]”?
A: IC50 [1]: 53 µM; IC50 [2]: 40 µM

Q: With `CN(C)c1ccc(N=Nc2cc[nH]n2)cc1.F[P-](F)(F)(F)(F)F.[Cl-].[Ru+2].c1ccc(-c2ccccc2)cc1` [Compound 15, [Ru(biphenyl)(3(5)-(4-dimethylaminophenylazo)pyrazole)Cl]PF6] as the compound, how does the IC50 [1] read?
A: Its IC50 is 32 µM.

Q: What about the “arene loss (free biphenyl peaks)” value ([4]; 100 μM, 99.5% D2O, 0.5% DMSO, 115 mM NaCl, pH=7.35, 37° C., over 24 hours) of the same compound?
A: The value was “major peaks corresponding to free biphenyl”.

Q: What about the IC50 [2] of the same compound?
A: Its IC50 is 24 µM.

Q: Which “cell survival of cells pre-treated with NAC versus untreated cells” value ([7]; 5 μM drug) does the source give for `[NH2][Pt]([NH2])([Cl])[Cl]` [CDDP, cisplatin, reference compound] here?
A: The value was “greater cell survival”.

Q: With “[Ru(THN)(3(5)-(4-dimethylaminophenylazo)pyrazole)Cl]PF6 [Compound 18]” as the compound, how does the IC50 [2] read?
A: The IC50 was 57 µM.

Q: With “[Ru(biphenyl)(4-phenol-azo pyridine)I]PF6 [Compound 13]” as the compound, how does the IC50 [1] read?
A: The IC50 was 6 µM.

Q: And the “change in DCF fluorescence over time (ROS generation)” value [5]?
A: The value was “increase in the DCF fluorescence”.

Q: What about the IC50 [2] of the same compound?
A: The IC50 was 5 µM.

Q: What about the “cell survival of cells pre-treated with NAC versus untreated cells” value ([7]; 5 μM drug) of the same compound?
A: Its value is “greater cell survival”.

Q: What does the source list for “[(η^6-C6H5OCH2CH2OH)Ru(azpy-NMe2)I]I [Compound 22]”?
A: IC50 [1]: 49 µM; IC50 [2]: 15 µM

Q: What does the source list for “[Ru(bip)(2-phenyl-azo pyridine)I]PF6 [Compound 7]”?
A: IC50 [1]: 39 µM; IC50 [2]: 51 µM

Q: Which IC50 [2] does the source give for “[Ru(benzene)(3(5)-(4-dimethylaminophenylazo)pyrazole)Cl]PF6 [Compound 17]” here?
A: Its IC50 is 88 µM.
